In patent US6664241B2, “Water-soluble amide derivatives of polyene macrolides and preparation and uses thereof” (Micrologix Biotech Inc., priority 2000, dated 2003):
Values after ≈ are worked out from the molar mass of the structure shown.

Legend:
[1] = Maximum non-lethal dose (NLD), single intravenous dose in mice; type: in vivo, Swiss-Webster male mice; conditions: test compounds as aspartate salts in 5% mannitol, AmB as FUNGIZONE
Outline: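 Groups of four male Swiss-Webster mice received one intravenous dose of aspartate salt in 5% mannitol/water, freshly prepared. Doses were raised or lowered after each round until the maximum non-lethal dose was found.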

[2] = Ascending single-dose nephrotoxicity study in rabbits; type: in vivo, Female New Zealand white rabbits; conditions: female, New Zealand white, rabbit, in vivo, ascending single intravenous infusion doses, urine volume, BUN, creatinine, read-out: NOAEL acute rabbit
Procedure: (§1) A variety of the compounds synthesized as described in Section 5, supra, were tested in various in vivo assays, as described below. The results of the various assays are provided in TABLE 3, presented at the end of this section. In all of the in vivo assays described, the test compounds, in the form of the aspartate salts, were formulated in an aqueous vehicle (5% mannitol in sterile water; OSMITROL, Baxter Healthcare, Deerfield, Ill.), followed by appropriate dilutions. The formulations were prepared fresh before dosing.
AmB and AME were also tested for comparison. For AmB, the commercially available FUNGIZONE (Bristol-Meyers Squibb Co.) was used. […]
Various polyene macrolide amide derivatives of the invention were evaluated to determine the intravenous dose of administered compound that produces nephrotoxicity in rabbits. Nephrotoxicity was monitored by measuring urine volume and blood urine nitrogen (BUN) and creatinine. […]
Ascending single doses were administered by intravenous infusion into an ear vein at a rate of 0.6 mL/min. […] Body weights were recorded before each dose, as well as 2 days after the last dose. Blood samples were collected from the rabbits two days prior to the first dose (study day −2) and approximately 24 hr after each dose and analyzed for BUN and creatinine. […]

C. albicans [3] = test: 5 day kidney bioburden evaluation in immunocompetent mice challenged with C. albicans; type: in vivo, Swiss-Webster mice; conditions: for effective in % of mice: greater than 2 log10 reduction in kidney CFU
Procedure: as §1
(§2) AmB and AME were also tested for comparison. For AmB, the commercially available FUNGIZONE (Bristol-Meyers Squibb Co.) was used. Reported values are based upon the weight of the AmB active ingredient, not on the basis of the weight of the FUNGIZONE powder. AME was formulated in OSMITROL as described for the test compounds.
Various polyene macrolide amide derivatives of the invention were evaluated for their protective effect when administered intraperitoneally once daily for 5 days to immunocompetent mice challenged with live C. albicans.
C. albicans was grown on Sabouraud dextrose agar (SDA) plates for 48 hr. Colonies were harvested and washed twice by centrifugation in phosphate-buffered saline (PBS). The washed pellets were resuspended in PBS and diluted to achieve the desired number of fungi per milliliter. A portion of the inoculum was plated on SDA plates to determine the colony-forming units (CFU) per milliliter.
(§3) Swiss-Webster mice (Simonsen Laboratories, Gilroy, Calif.) were administered by intravenous injection a single inoculum (0.2 mL) containing as estimated 2.0×10^5 CFU of C. albicans. The day of inoculation was designated as study day 0. Beginning three days after injection, mice were treated intraperitoneally with vehicle alone or formulated test compound once daily for 5 consecutive days.
(§4) The mice were observed daily from study day 0 through study day 10 (3 days after the last dose). Mice found dead or euthanized in extremis were removed from the study without further processing. Surviving mice were euthanized by inhalation of CO2 on study day 10 and both kidneys from each mouse were removed. Each pair of removed kidneys was homogenized in 3 mL of ice-cold PBS containing 10% glycerol. A portion of each homogenate was used to determine log10 CFU per kidney using SDA plates (48 hours of incubation at 30° C.). Kidney log10 CFU data were analyzed using a t-test. The criterion for a statistically significant response was set at p<0.01.
(§5) For comparison, the results for AmB and AME are also provided. Efficacy was defined for individual animals as a greater than 2 log10 reduction in kidney CFU relative to the mean vehicle control value.

C. albicans [4] = test: Minimum Inhibitory Concentrations (MICs) against C. albicans, NCCLS M27-A broth dilution; type: cell-based; conditions: Candida albicans, read-out: MIC
Procedure: For each compound synthesized, Minimum Inhibitory Concentrations (MICs) against C. albicans were determined as described in Reference Method for Broth Dilution Antifungal Susceptibility Testing of Yeasts, Approved Standard, NCCLS document M27-A (ISBN 1-56238-328-0), NCCLS, 940 West Valley Road, Suite 1400, Wayne, Pa. 19087, 1997.

C. albicans [5] = test: 7 day kidney bioburden evaluation in neutropenic mice challenged with C. albicans; type: in vivo, Swiss-Webster mice; conditions: Candida albicans, ip, 168 h, intraperitoneally once daily for 7 days, 50% of animals with 2 log10 reduction in kidney CFU
Procedure: as §1, §2
Various polyene macrolide amide derivatives of the invention were evaluated for their protective effect when administered intraperitoneally once daily for 7 days to neutropenic mice challenged with live C. albicans.
as §3, with “made neutropenic by intravenous administration of 5-fluorouracil (150 mg/kg) on study day −1. On study day 0, all mice received” for “administered”, “5.0×10^4” for “2.0×10^5”, “the day” for “three days”, “infection (on study day 1),” for “injection,”, “compound,” for “compound”, “7” for “5”
as §4, with “day 1” for “day 0”, “day 8 (1 day” for “day 10 (3 days”, “day 8” for “day 10”
as §5

C[C@@H]1[C@H](O)[C@@H](C)/C=C/C=C/C=C/C=C/C=C/C=C/C=C/[C@H](O[C@@H]2O[C@H](C)[C@@H](O)[C@H](N)[C@@H]2O)C[C@@H]2O[C@](O)(C[C@@H](O)C[C@@H](O)[C@H](O)CC[C@@H](O)C[C@@H](O)CC(=O)O[C@H]1C)C[C@H](O)[C@H]2C(=O)O [AMB, amphotericin B, reference compound]
NLD acute mice [1]: 1.5 mg/kg | NOAEL [2]: 0.375 mg/kg | effective in % of mice (C. albicans [3]; 2 mg/kg/day intraperitoneally): 20% | effective in % of mice (C. albicans [3]; 4 mg/kg/day intraperitoneally): 60% | effective in % of mice (C. albicans [3]; 8 mg/kg/day intraperitoneally): 100% | effective in % of mice (C. albicans [3]; 16 mg/kg/day intraperitoneally): 78% | ED50 (C. albicans [3]; Candida albicans, ip, 120 h, intraperitoneally once daily for 5 days, immunocompetent mice, C. albicans, 50% of animals with 2 log10 reduction in kidney CFU, read-out: ED50 mice 5 day): 3 mg/kg | ED50 (C. albicans [3]; intraperitoneally, 5 day kidney bioburden model, calculated): 3 mg/kg/day | MIC (C. albicans [4]): 0.125 to 0.25 µg/mL (≈ 0.135 to 0.271 µM) | ED50 (C. albicans [5]): 0.3 mg/kg
